The test system of assay [1] is 4-AP-induced seizures. The assay can be described thus: 4-AP-induced seizures in mice. The class given is in vivo. Particulars: 80 mg/kg, positive control, 4-AP 13 mg/kg. The protocol: (§1) KA was dissolved in saline and the pH was adjusted to neutrality. The final concentration of KA was 0.7 µg/µl, and the convulsant dose was 1 µl (i.c.v.). […] The selective adenosine receptor antagonist DPCPX or SCH58261 was administered (i.p.) 5 min before administration of B2 or vehicle.
(§2) Mice were injected with B2 (1.25, 5, 20 mg/kg), carbamazepine (80 mg/kg) or vehicle 20 min before administration of strychnine (1.5 mg/kg) or 4-AP (13 mg/kg). […] The time of latency to seizure onset and mortality rate were recorded.

The subject of assay [2] is strychnine-induced seizures. The assay can be described thus: Strychnine-induced seizures in mice. The class given is in vivo. To be noted: 80 mg/kg, positive control; strychnine 1.5 mg/kg i.p. The protocol: as §1, §2
Assay [3] concerns PTZ-induced seizures. Briefly: PTZ-induced seizures with adenosine receptor antagonist pretreatment. Type of assay: in vivo, mice. Particulars: PTZ 85 mg/kg. Here is the method:
as §1
Twenty min later, mice were admdinistered with PTZ (85 mg/kg).

Assay [4] concerns KA-induced seizures. Briefly: KA-induced seizures in mice. The class given is in vivo. To be noted: 10 mg/kg, positive control, KA 0.7 µg i.c.v. The protocol: as §1
The left lateral ventricle (0.6 mm posterior, 1.9 mm lateral, and 2.1 mm ventral to bregma) was cannulated as described. After a 7-day recovery period, mice were injected with either B2 (1.25, 5, 20 mg/kg) or vehicle. Twenty minutes later, an intracerebroventricular injection of KA (0.7 µg/µl, 1 µl) was administered without anesthesia. The animals were then observed for a minimum of 60 min. Seizure severity was determined according to the scoring system described by Racine. At the end of the experiment, cannulae placement was verified.

Assay [5] concerns PTZ-induced seizures. The assay can be described thus: PTZ-induced seizures in mice. The class given is in vivo. Particulars: 10 mg/kg i.p.; PTZ 85 mg/kg s.c.; P<0.001. The protocol:
The latency of seizure onset, number of seizures, and mortality rate was recorded for the picrotoxin-injected mice. For the PTZ-injected mice, we recorded the latency of seizure onset, number of seizures, and presence of clonic seizures.

Consider `NC(=O)N1c2ccccc2C=Cc2ccccc21` [Carbamazepine, carbamazepine, reference compound], for which, in assay [1] (P<0.001), the “effect on latency to seizure onset” value is reported as “significantly prolonged”. In assay [1] (P<0.05), the “effect on mortality rate” value is given as “reduced the mortality rate”. Further, the “protection against strychnine-induced seizures” value in assay [2] is “complete protection”.

On to `CCCn1c(=O)c2[nH]c(C3CCCC3)nc2n(CCC)c1=O` [DPCPX, 8-Cyclopentyl-1,3-dipropylxanthine], for which, in assay [3] (DPCPX 0.3125–1.25 mg/kg i.p. alone), the “effect on onset time of seizure, antagonist alone” value is reported as “did not affect”. For the same compound, in assay [3] (DPCPX pretreatment 5 min before B2 5 mg/kg, P<0.05), the “effect on the delaying effect of B2 on onset times of seizure” value is reported as “significantly blocked”.

In the case of `CN1C(=O)CN=C(c2ccccc2)c2cc(Cl)ccc21` [Diazepam, diazepam, reference compound], the “protection against KA-induced seizures” value in assay [4] is listed as “significant protection”. In addition, the “protection against PTZ-induced seizures” value in assay [5] is recorded as “completely protected”.

Regarding `Nc1nc2c(cnn2CCc2ccccc2)c2nc(-c3ccco3)nn12` [SCH58261, 5-amino-7-(β-phenylethyl)-2-(2-furyl)-pyrazolo-[4,3-e]-1,2,4-triazolo[1,5-c]-pyrimidine], the “effect on onset time of seizure, antagonist alone” value in assay [3] (SCH58261 0.08–1.25 mg/kg i.p. alone) is reported as “did not affect”. The “effect on the delaying effect of B2 on seizure onset time” value in assay [3] (SCH58261 pretreatment 5 min before B2 5 mg/kg) is “did not affect the delaying effect”.

Values taken from article PMC3692431, “Anticonvulsant Activity of B2, an Adenosine Analog, on Chemical Convulsant-Induced Seizures” (PLoS ONE, 2013).
